Laboratory results: publication PMC7765375, “Novel Heme Oxygenase-1 (HO-1) Inducers Based on Dimethyl Fumarate Structure” (International Journal of Molecular Sciences, 2020)
Where a name gives a salt, the structure may show the parent alone. Read-outs that look alike come from different tables or passages of the source.

Legend:
HO-1 = HO-1 expression by ELISA in LX-2 cell lysates; assay type: cell-based, human; settings: for fold induction at 1 µM / fold induction at 5 µM / fold induction at 10 µM: Homo sapiens, LX-2, 24 h; for fold induction at 1 µM / fold induction at 5 µM / fold induction at 10 µM / Fold Induction (ELISA): 24 h, LX-2 cells lysate, vs control group, mean ± SD of triplicate; for potency as HO-1 inducers relative to DMF: LX-2 cells, more active than DMF
Method: (§1) LX 2 cell lines were bought from American Type Culture Collection (Rockville, MD, USA). Upon defrosting, the cells were seeded in 6-well plates and maintained in a medium DMEM low glucose supplemented with 10% FBS and a 1% Penicillin and Streptomycin solution. The obtained cell cultures were left at 37 °C in an incubator with 5% CO2, and the culture medium was changed after 3 or 4 days. Sub-confluent cells were treated over a period of 24 h using various concentrations (1, 5, 10 µM) of compounds 1a–o, 2a–c, and dimethyl fumarate (DMF) previously dissolved in DMSO. Control groups were treated with only DMSO.
The commercially available ELISA kit (ADI-EKS-800, Enzo Life Sci) was used to measure heme oxygenase […] (HO-1) protein concentration in LX2 cellular lysates. The test was performed in agreement with the protocol reported by the manufacturer. Absorbance at λ = 450 nm was measured and the concentration of HO-1 was calculated from a standard curve previously created using purified HO-1 protein. Results were expressed as folds of change compared to the control group. Individual measurement was performed in triplicate and data were reported as averages.

LX-2 cells [1] = assay: MTT assay of cell viability; assay type: cell-based, human
Method: as §1
An MTT assay was performed to monitor cell viability, measuring the conversion of tetrazolium salt to yield colored formazan, the amount of which was proportional to the number of living cells. Regarding this assay, LX2 cells were seeded at a concentration of […] cells per well, in a 96-multiwell flat-bottomed 200 μL microplate. The optical density of each well was measured with a microplate spectrophotometer reader (Synergy HT, BioTek) at λ = 570 nm.

LX-2 cells [2] = assay: ROS assay with DCFH-DA, palmitic acid (PA)-mediated ROS production; assay type: cell-based, human; settings: 24 h; for ROS production mediated by palmitic acid (PA), co-treatment: 5 μM compound + PA 300 μM, p < 0.05 vs. PA
Method: Determination of the reactive oxygen species (ROS) was performed using a fluorescent probe 2′,7′-dichlorofluorescein diacetate (DCFH-DA). The fluorescence (corresponding to the oxidized radical species 2′,7′-dichlorofluorescein, DCF) was monitored spectrofluorometrically (excitation, λ = 488 nm; emission, λ = 525 nm). Results were reported as fluorescence intensity. Concerning the experiments, the cells were seeded in 96-well plates at a density of 1 × 10^4 cells per well. Then, the cells were treated for 24 h with DMEM containing a no cytotoxic concentration of palmitic acid (PA) 300 μM in the presence or absence of compound 1b, 1l, 1m and dimethyl fumarate (DMF) (5 μM).

Row | Compound | fold induction at 1 µM (HO-1; 1 μM) | fold induction at 5 µM (HO-1; 5 μM) | fold induction at 10 µM (HO-1; 10 μM) | IC50 (LX-2 cells [1]; Homo sapiens) [µM] | melting point [°C] | also measured
1 | O=C(/C=C/C(=O)Oc1ccccc1C(=O)O)Oc1ccccc1C(=O)O [Compound 1h, (2E)-2-Butenedioic acid, 1,4-bis(2-carboxyphenyl) ester] | 6.37 ± 0.22 | 7.45 ± 0.21 | 9.95 ± 0.19 | > 50 |  | 
2 | COc1ccc(OC(=O)/C=C/C(=O)Oc2ccc(OC)cc2)cc1 [Compound 1g, (2E)-2-Butenedioic acid, 1,4-bis(4-methoxyphenyl) ester] | 0.3 ± 0.01 | 0.76 ± 0.02 | 0.9 ± 0.06 | 22.3 ± 1.8 | 180 to 181 | 
3 | O=C(/C=C/C(=O)Oc1ccc(I)cc1)Oc1ccc(I)cc1 [Compound 1c, (2E)-2-Butenedioic acid, 1,4-bis(4-iodophenyl) ester] | 6.02 ± 0.13 | 7.7 ± 0.19 | 8.13 ± 0.23 | 20.8 ± 1.5 | 266 to 267 | 
4 | Cc1ccc(OC(=O)/C=C/C(=O)Oc2ccc(C)cc2)cc1 [Compound 1f] | 1.82 ± 0.09 | 3.94 ± 0.13 | 3.76 ± 0.15 | > 50 | 160 to 161 | 
5 | O=C(/C=C/C(=O)Oc1ccc(Cl)cc1)Oc1ccc(Cl)cc1 [Compound 1b, (2E)-2-Butenedioic acid, 1,4-bis(4-chlorophenyl) ester] | 8.81 ± 0.2 | 8.19 ± 0.21 | 11.7 ± 0.41 | > 50 | 178 to 179 | ROS production mediated by palmitic acid (PA), co-treatment (LX-2 cells [2]): significantly reversed the effect mediated by PA; potency as HO-1 inducers relative to DMF (HO-1): 2–3 fold
6 | O=C(/C=C/C(=O)Oc1ccc(C(F)(F)F)cc1)Oc1ccc(C(F)(F)F)cc1 [Compound 1d, (2E)-2-Butenedioic acid, 1,4-bis(4-trifluoromethyphenyl) ester] |  | 1.4 ± 0.03 | 0.68 ± 0.02 | > 50 | 122 to 123 | 
7 | O=C(/C=C/C(=O)OCCCc1ccccc1)OCCCc1ccccc1 [Compound 1k, (2E)-2-Butenedioic acid, 1,4-bis(phenylpropyl) ester] | 2.26 ± 0.09 | 5.98 ± 0.16 | 9.55 ± 0.27 | > 50 |  | 
8 | CCCCCCCCCCCCCCCC(=O)O [PA, palmitic acid, reference compound] |  |  |  |  |  | ROS production, PA alone (LX-2 cells [2]; PA 300 μM, p < 0.05 vs. control): increased ROS production
9 | (E)-N, N’-Diphenylethyl-2-butenediamide [Compound 1n] |  |  |  |  |  | Fold Induction (ELISA) (HO-1; 1 μM): 5.82 ± 0.12 fold; Fold Induction (ELISA) (HO-1; 5 μM): 7.52 ± 0.21 fold; Fold Induction (ELISA) (HO-1; 10 μM): 8.40 ± 0.38 fold; IC50 (LX-2 cells [1]): > 50 µM
10 | O=C(/C=C/C(=O)Nc1ccccc1)Nc1ccccc1 [Compound 1l, (E)-N, N’-Diphenyl-2-butenediamide] | 6.9 ± 0.14 | 9.74 ± 0.25 | 10.2 ± 0.29 | > 50 | 332 to 333 | ROS production mediated by palmitic acid (PA), co-treatment (LX-2 cells [2]): significantly reversed the effect mediated by PA; potency as HO-1 inducers relative to DMF (HO-1): 2–3 fold
11 | O=C(/C=C/C(=O)OCCc1ccccc1)OCCc1ccccc1 [Compound 1j, (2E)-2-Butenedioic acid, 1,4-bis(phenylethyl) ester] | 2.29 ± 0.1 | 5.91 ± 0.17 | 8.47 ± 0.33 | > 50 | 77 to 79 | 
12 | O=C(/C=C/C(=O)Oc1ccccc1)Oc1ccccc1 [Compound 1a, (2E)-2-Butenedioic acid, 1,4-diphenyl ester] | 6.65 ± 0.15 | 7.93 ± 0.18 | 8.16 ± 0.32 | > 50 | 164 to 165 | 
13 | COC(=O)/C=C/C(=O)Oc1ccccc1 [Compound 2a, (2E)-2-Butenedioic Acid, Methyl Phenyl Ester] |  |  |  | > 50 | 54 to 55 | 
14 | COC(=O)/C=C/C(=O)OC [DMF, dimethyl fumarate] | 2.78 ± 0.09 | 7.63 ± 0.31 | 8.3 ± 0.23 | > 50 |  | ROS production mediated by palmitic acid (PA), co-treatment (LX-2 cells [2]): significantly reversed the effect mediated by PA
15 | COC(=O)/C=C/C(=O)OCCc1ccccc1 [Compound 2c, (2E)-2-Butenedioic acid, methyl phenylethyl ester] |  |  |  | > 50 | 44 to 45 | 
16 | N#Cc1ccc(OC(=O)/C=C/C(=O)Oc2ccc(C#N)cc2)cc1 [Compound 1e, (2E)-2-Butenedioic acid, 1,4-bis(4-cyanophenyl) ester] | 3.68 ± 0.21 | 5.22 ± 0.11 | 6.5 ± 0.17 | > 50 | 230 to 232 | 
17 | O=C(/C=C/C(=O)NCc1ccccc1)NCc1ccccc1 [Compound 1m, (E)-N, N’-Diphenylmethyl-2-butenediamide] | > 7 | > 14 | 13.8 ± 0.35 | 18.6 ± 1.4 |  | ROS production mediated by palmitic acid (PA), co-treatment (LX-2 cells [2]): significantly reversed the effect mediated by PA; Fold Induction (ELISA) (HO-1; 5 μM, 5 µM): 14.15 ± 0.34 fold; potency as HO-1 inducers relative to DMF (HO-1): 2–3 fold
18 | (E)-N, N’-Diphenylpropyl-2-butenediamide [Compound 1o] |  |  |  |  |  | Fold Induction (ELISA) (HO-1; 1 μM): 4.85 ± 0.13 fold; Fold Induction (ELISA) (HO-1; 5 μM): 6.93 ± 0.23 fold; Fold Induction (ELISA) (HO-1; 10 μM): 6.30 ± 0.21 fold; IC50 (LX-2 cells [1]): > 50 µM
19 | COC(=O)/C=C/C(=O)OCc1ccccc1 [Compound 2b, (2E)-2-Butenedioic acid, methyl phenylmethyl ester] |  |  | 0.28 | > 50 | 50 to 51 | 
20 | O=C(/C=C/C(=O)OCc1ccccc1)OCc1ccccc1 [Compound 1i, (2E)-2-Butenedioic acid, 1,4-bis(phenylmethyl) ester] | 3.4 ± 0.18 | 5.86 ± 0.19 | 7.34 ± 0.28 | 17.7 ± 1.3 | 59 to 61 | 
